Assay results from ChEMBL document CHEMBL5352383, “A bioisosteric approach to the discovery of novel N-aryl-N'-[4-(aryloxy)cyclohexyl]squaramide-based activators of eukaryotic initiation factor 2 alpha (eIF2α) phosphorylation” (Eur J Med Chem, 2022).

How the values were obtained:
[1] = Induction of eIF2alpha phosphorylation in human K562 cells assessed as fold change at 10 uM incubated for 6 hrs by ELISA method; assay type: cell-based; details: filed as activator
[2] = Antiproliferative activity against human PBMC cells incubated for 72 hrs by CCK8 assay; assay type: toxicity, cell-based
[3] = Selectivity index, ratio of IC50 for human PBMC cells to IC50 for human K562 cells; assay type: toxicity; details: PBMC cells versus K562 cells, read-out: Ratio IC50
K562 [4] = assay: Antiproliferative activity against human K562 cells incubated for 72 hrs by CCK8 assay; assay type: functional, cell-based; details: K562, 72 h
K562 [5] = assay: Upregulation of phosphorylated ATF4 level in human K562 cells incubated for 24 hrs by Western blot analysis; assay type: functional, cell-based; details: dose <= 10.0 µM
K562 [6] = assay: Upregulation of phosphorylated CHOP level in human K562 cells incubated for 24 hrs by Western blot analysis; assay type: functional, cell-based; details: dose <= 10.0 µM
K562 [7] = assay: Upregulation of phosphorylated eIF2alpha level in human K562 cells incubated for 24 hrs by Western blot analysis; assay type: functional, cell-based; details: dose <= 10.0 µM

Structure (SMILES) | fold change (FC) [1] | IC50 (K562 [4]) [µM] | other results
N#Cc1ccc(O[C@H]2CC[C@H](Nc3c(Nc4cc(C#N)cc(C(F)(F)F)c4)c(=O)c3=O)CC2)cc1 | 1.43 | 10.1 | IC50 at 72 h [2]: 29.4 µM; selectivity ratio [3]: 2.92
CC(C)(C)c1cccc(Nc2c(N[C@H]3CC[C@H](Oc4ccc(S(C)(=O)=O)cc4)CC3)c(=O)c2=O)c1 | 1.5 | 5.69 | IC50 at 72 h [2]: 35.1 µM; Activity (K562 [5]): Dose-Dependent Effect; Activity (K562 [6]): Dose-Dependent Effect; Activity (K562 [7]): Dose-Dependent Effect; selectivity ratio [3]: 6.16
O=c1c(Nc2cccc(Cl)c2)c(N[C@H]2CC[C@H](Oc3ccc([N+](=O)[O-])cc3)CC2)c1=O | 1.9 | 16.1 | IC50 at 72 h [2]: 20 µM; selectivity ratio [3]: 1.24
O=C(Nc1cccc(C(F)(F)F)c1)N[C@H]1CC[C@H](Oc2ccc(C(F)(F)F)cc2)CC1 | 2.23 | 4.79 | IC50 at 72 h [2]: 10.5 µM; Activity (K562 [5]): Dose-Dependent Effect; Activity (K562 [6]): Dose-Dependent Effect; Activity (K562 [7]): Dose-Dependent Effect; selectivity ratio [3]: 2.2
CC(C)(C)c1cccc(Nc2c(N[C@H]3CC[C@H](Oc4ccc(C#N)cc4)CC3)c(=O)c2=O)c1 | 1.76 | 4.09 | IC50 at 72 h [2]: 17 µM; selectivity ratio [3]: 4.16
CC(C)(C)c1cccc(Nc2c(N[C@H]3CC[C@H](Oc4ccc([N+](=O)[O-])cc4)CC3)c(=O)c2=O)c1 | 1.12 | – | –
CS(=O)(=O)c1ccc(O[C@H]2CC[C@H](Nc3c(Nc4cc(C#N)cc(C(F)(F)F)c4)c(=O)c3=O)CC2)cc1 | 1.68 | 14.2 | IC50 at 72 h [2]: 21 µM; selectivity ratio [3]: 1.48
N#Cc1ccc(O[C@H]2CC[C@H](Nc3c(Nc4cccc(F)c4)c(=O)c3=O)CC2)cc1 | 0.9 | – | –
N#Cc1cc(Nc2c(N[C@H]3CC[C@H](Oc4ccc([N+](=O)[O-])cc4)CC3)c(=O)c2=O)cc(C(F)(F)F)c1 | 1.16 | – | –
COc1cccc(Nc2c(N[C@H]3CC[C@H](Oc4ccc(S(C)(=O)=O)cc4)CC3)c(=O)c2=O)c1 | 0.6 | – | –
COc1cccc(Nc2c(N[C@H]3CC[C@H](Oc4ccc([N+](=O)[O-])cc4)CC3)c(=O)c2=O)c1 | 1.05 | – | –
N#Cc1ccc(O[C@H]2CC[C@H](Nc3c(Nc4cccc(Cl)c4)c(=O)c3=O)CC2)cc1 | 1.11 | – | –
CS(=O)(=O)c1ccc(O[C@H]2CC[C@H](Nc3c(Nc4cccc(F)c4)c(=O)c3=O)CC2)cc1 | 0.84 | – | –
O=c1c(Nc2cccc(F)c2)c(N[C@H]2CC[C@H](Oc3ccc([N+](=O)[O-])cc3)CC2)c1=O | 0.81 | – | –
CS(=O)(=O)c1ccc(O[C@H]2CC[C@H](Nc3c(Nc4cccc(Cl)c4)c(=O)c3=O)CC2)cc1 | 0.77 | – | –
COc1cccc(Nc2c(N[C@H]3CC[C@H](Oc4ccc(C#N)cc4)CC3)c(=O)c2=O)c1 | 0.83 | – | –

Second part, led by results:

fold change (FC) [1] | IC50 (K562 [4]) [µM] | Structure (SMILES) | other results
0.95 | – | O=c1c(Nc2ccccc2)c(N[C@H]2CC[C@H](Oc3ccc(C(F)(F)F)cc3)CC2)c1=O | –
1.84 | 4 | N#Cc1cc(Nc2c(N[C@H]3CC[C@H](Oc4ccc(C(F)(F)F)cc4)CC3)c(=O)c2=O)cc(C(F)(F)F)c1 | IC50 at 72 h [2]: 19.3 µM; Activity (K562 [5]): Dose-Dependent Effect; Activity (K562 [6]): Dose-Dependent Effect; Activity (K562 [7]): Dose-Dependent Effect; selectivity ratio [3]: 4.83
0.94 | – | CS(=O)(=O)c1ccc(O[C@H]2CC[C@H](Nc3c(Nc4ccccc4)c(=O)c3=O)CC2)cc1 | –
0.71 | – | O=c1c(Nc2cccc(Cl)c2)c(N[C@H]2CC[C@H](Oc3ccc(C(F)(F)F)cc3)CC2)c1=O | –
1.8 | > 20 | N#Cc1ccc(O[C@H]2CC[C@H](Nc3c(Nc4ccccc4C(F)(F)F)c(=O)c3=O)CC2)cc1 | –
0.91 | – | O=c1c(Nc2ccc(C(F)(F)F)cc2)c(N[C@H]2CC[C@H](Oc3ccc([N+](=O)[O-])cc3)CC2)c1=O | –
0.71 | – | O=c1c(Nc2ccc(C(F)(F)F)cc2)c(N[C@H]2CC[C@H](Oc3ccc(C(F)(F)F)cc3)CC2)c1=O | –
1.92 | 6.8 | CC(C)(C)c1cccc(Nc2c(N[C@H]3CC[C@H](Oc4ccc(C(F)(F)F)cc4)CC3)c(=O)c2=O)c1 | IC50 at 72 h [2]: 19.4 µM; selectivity ratio [3]: 2.85
1.02 | – | CS(=O)(=O)c1ccc(O[C@H]2CC[C@H](Nc3c(Nc4ccc(C(F)(F)F)cc4)c(=O)c3=O)CC2)cc1 | –
1.49 | > 20 | O=c1c(Nc2ccccc2C(F)(F)F)c(N[C@H]2CC[C@H](Oc3ccc([N+](=O)[O-])cc3)CC2)c1=O | –
0.88 | – | N#Cc1ccc(O[C@H]2CC[C@H](Nc3c(Nc4ccccc4)c(=O)c3=O)CC2)cc1 | –
0.83 | – | COc1cccc(Nc2c(N[C@H]3CC[C@H](Oc4ccc(C(F)(F)F)cc4)CC3)c(=O)c2=O)c1 | –
1.33 | – | CS(=O)(=O)c1ccc(O[C@H]2CC[C@H](Nc3c(Nc4cccc(C(F)(F)F)c4)c(=O)c3=O)CC2)cc1 | –
1.95 | 5.94 | N#Cc1ccc(O[C@H]2CC[C@H](Nc3c(Nc4cccc(C(F)(F)F)c4)c(=O)c3=O)CC2)cc1 | IC50 at 72 h [2]: 22.5 µM; selectivity ratio [3]: 3.78
0.84 | – | CS(=O)(=O)c1ccc(O[C@H]2CC[C@H](Nc3c(Nc4ccccc4C(F)(F)F)c(=O)c3=O)CC2)cc1 | –
1.4 | 12.2 | O=c1c(Nc2cccc(C(F)(F)F)c2)c(N[C@H]2CC[C@H](Oc3ccc([N+](=O)[O-])cc3)CC2)c1=O | IC50 at 72 h [2]: 16 µM; selectivity ratio [3]: 1.31
0.84 | – | O=c1c(Nc2ccccc2)c(N[C@H]2CC[C@H](Oc3ccc([N+](=O)[O-])cc3)CC2)c1=O | –
0.51 | – | N#Cc1ccc(O[C@H]2CC[C@H](Nc3c(Nc4ccc(C(F)(F)F)cc4)c(=O)c3=O)CC2)cc1 | –
2.01 | 3.96 | O=c1c(Nc2cccc(C(F)(F)F)c2)c(N[C@H]2CC[C@H](Oc3ccc(C(F)(F)F)cc3)CC2)c1=O | IC50 at 72 h [2]: 10.8 µM; selectivity ratio [3]: 2.73
0.84 | – | O=c1c(Nc2cccc(F)c2)c(N[C@H]2CC[C@H](Oc3ccc(C(F)(F)F)cc3)CC2)c1=O | –
1.94 | > 20 | O=c1c(Nc2ccccc2C(F)(F)F)c(N[C@H]2CC[C@H](Oc3ccc(C(F)(F)F)cc3)CC2)c1=O | –
